Measurements: US20100305113A1, “Substituted Imidazopyridazines as Lipid Kinase Inhibitors” (priority 2007, published 2010)

Assays:
PI3K gamma = target: T1, PI3K gamma (Homo sapiens, UniProt P48736); assay: PI3K gamma enzymatic assay (Kinase-Glo luminescence); format: biochemical; details: Enzymatic Data
T1 construct: His tag (C); made in house; host or cells: construct from Roger Williams lab (MRC LMB); baculovirus (pVL1393); Tn5 (Trichoplusia ni) or TiniPro insect cells
Outline: (§1)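 Kinase-Glo ATP-depletion luminescence with 1 μM ATP and 10 μg/mL phosphatidylinositol in pH 7.5 Tris buffer; 10 nM PI3Kα incubated 60 min, 150 nM PI3Kγ 120 min, at room temperature. IC50 by 4-parameter logistic fit over 8 concentrations.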

PI3K alfa = target: T2, PI3K alfa (Homo sapiens, UniProt P42336); assay: PI3K alfa enzymatic assay (Kinase-Glo luminescence); format: biochemical; details: Enzymatic Data
T2 construct: p85(iSH2) fusion partner (same polypeptide; see partner chain) (N); 12x Gly linker (N); His tag (C); made in house; host or cells: baculovirus; Tn5 (Trichoplusia ni) or TiniPro insect cells
Outline: as §1

PI3K beta = target: T3, PI3K beta (Homo sapiens, UniProt P42338); assay: PI3K beta enzymatic assay (Kinase-Glo luminescence); format: biochemical; details: Enzymatic Data
T3 construct: for the full-length p110-b subunit are generated and fused by overlapping PCR; p85(iSH2) fusion partner (same polypeptide; see partner chain) (N); Gly linker (N); His tag (C); made in house; host or cells: baculovirus; Tn5 (Trichoplusia ni) or TiniPro insect cells
Outline: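 Full-length p110β with p85 iSH2 (His-tagged) at 25 nM, 10 μg/mL phosphatidylinositol and 1 μM ATP, in pH 7.5 Tris with 3 mM MgCl2, 60 min at room temperature. Remaining ATP read by Kinase-Glo luminescence; IC50 from 4-parameter logistic fit over 8 concentrations.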

PI3K delta = target: T4, PI3K delta (Homo sapiens, UniProt O00329); assay: PI3K delta enzymatic assay (Kinase-Glo luminescence); format: biochemical; details: Enzymatic Data
T4 construct: for the full-length p110-d subunit are generated and fused by overlapping PCR; p85(iSH2) fusion partner (same polypeptide; see partner chain) (N); Gly linker (N); His tag (C); made in house; host or cells: baculovirus; Tn5 (Trichoplusia ni) or TiniPro insect cells
Outline: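 10 nM PI3Kδ p85(iSH2)-Gly linker-full-length p110δ His-tagged construct with 10 µg/mL phosphatidylinositol and 1 µM ATP. Buffer: 10 mM Tris pH 7.5, 3 mM MgCl2, 50 mM NaCl, 0.05% CHAPS, 1 mM DTT; 60 min RT. Kinase-Glo luminescence; IC50 from 4-parameter logistic fit over 8 concentrations.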

T1 sequence (P48736 144-1102 limits assumed): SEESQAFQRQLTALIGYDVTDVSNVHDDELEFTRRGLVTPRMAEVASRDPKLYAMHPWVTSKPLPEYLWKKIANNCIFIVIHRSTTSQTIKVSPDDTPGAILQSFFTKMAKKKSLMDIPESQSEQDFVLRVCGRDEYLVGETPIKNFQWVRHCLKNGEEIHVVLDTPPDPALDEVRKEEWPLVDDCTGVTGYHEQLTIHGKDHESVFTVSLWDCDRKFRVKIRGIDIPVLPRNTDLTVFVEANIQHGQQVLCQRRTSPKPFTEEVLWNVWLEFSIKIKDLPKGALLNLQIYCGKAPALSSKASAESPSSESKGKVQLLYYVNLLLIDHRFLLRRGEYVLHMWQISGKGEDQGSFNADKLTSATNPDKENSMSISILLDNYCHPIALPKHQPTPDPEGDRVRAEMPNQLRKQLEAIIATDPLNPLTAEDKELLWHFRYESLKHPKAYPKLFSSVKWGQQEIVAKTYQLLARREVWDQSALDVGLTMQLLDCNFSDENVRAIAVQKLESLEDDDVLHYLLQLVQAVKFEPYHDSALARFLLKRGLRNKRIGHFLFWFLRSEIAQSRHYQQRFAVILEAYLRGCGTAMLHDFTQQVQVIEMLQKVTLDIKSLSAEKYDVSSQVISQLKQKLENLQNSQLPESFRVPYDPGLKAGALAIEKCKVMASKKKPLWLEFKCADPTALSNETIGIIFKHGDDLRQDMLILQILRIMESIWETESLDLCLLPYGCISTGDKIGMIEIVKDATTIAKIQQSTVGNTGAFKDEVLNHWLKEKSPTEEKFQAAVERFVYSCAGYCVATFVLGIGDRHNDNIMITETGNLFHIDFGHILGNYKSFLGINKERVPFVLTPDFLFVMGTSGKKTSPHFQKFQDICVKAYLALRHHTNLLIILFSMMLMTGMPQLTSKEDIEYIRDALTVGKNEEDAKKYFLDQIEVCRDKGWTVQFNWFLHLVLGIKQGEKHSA
T2 sequence (P42336 with tags, fused parts or gaps limits assumed): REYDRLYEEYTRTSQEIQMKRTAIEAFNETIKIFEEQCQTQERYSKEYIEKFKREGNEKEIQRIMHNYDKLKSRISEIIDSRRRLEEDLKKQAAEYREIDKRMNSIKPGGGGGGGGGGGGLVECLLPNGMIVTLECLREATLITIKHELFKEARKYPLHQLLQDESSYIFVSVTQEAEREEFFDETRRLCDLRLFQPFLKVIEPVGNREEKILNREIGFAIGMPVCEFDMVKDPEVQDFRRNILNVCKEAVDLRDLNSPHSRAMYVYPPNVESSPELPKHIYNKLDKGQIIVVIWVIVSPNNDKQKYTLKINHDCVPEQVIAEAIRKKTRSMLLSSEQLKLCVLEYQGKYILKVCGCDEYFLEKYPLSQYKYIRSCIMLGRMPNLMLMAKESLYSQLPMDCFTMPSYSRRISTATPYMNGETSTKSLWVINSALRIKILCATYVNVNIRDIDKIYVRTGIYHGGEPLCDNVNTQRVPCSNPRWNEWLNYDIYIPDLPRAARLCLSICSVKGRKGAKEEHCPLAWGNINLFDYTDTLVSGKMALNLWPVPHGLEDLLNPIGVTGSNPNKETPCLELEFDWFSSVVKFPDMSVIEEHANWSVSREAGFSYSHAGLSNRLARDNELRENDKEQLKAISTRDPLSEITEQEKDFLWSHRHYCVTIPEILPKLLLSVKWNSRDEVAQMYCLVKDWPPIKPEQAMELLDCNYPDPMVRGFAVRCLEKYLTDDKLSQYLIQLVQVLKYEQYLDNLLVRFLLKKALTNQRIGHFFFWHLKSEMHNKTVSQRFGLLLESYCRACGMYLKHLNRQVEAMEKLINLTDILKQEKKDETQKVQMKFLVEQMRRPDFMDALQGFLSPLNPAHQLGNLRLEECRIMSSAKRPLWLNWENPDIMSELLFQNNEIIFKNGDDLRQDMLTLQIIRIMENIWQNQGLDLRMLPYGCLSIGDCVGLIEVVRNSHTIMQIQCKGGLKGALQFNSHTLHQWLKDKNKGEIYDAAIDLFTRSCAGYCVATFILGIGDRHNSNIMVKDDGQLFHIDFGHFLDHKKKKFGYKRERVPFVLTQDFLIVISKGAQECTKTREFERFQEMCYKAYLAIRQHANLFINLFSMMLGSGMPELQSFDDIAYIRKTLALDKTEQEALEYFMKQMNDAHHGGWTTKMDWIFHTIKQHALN
T3 sequence (P42338 with tags, fused parts or gaps limits assumed): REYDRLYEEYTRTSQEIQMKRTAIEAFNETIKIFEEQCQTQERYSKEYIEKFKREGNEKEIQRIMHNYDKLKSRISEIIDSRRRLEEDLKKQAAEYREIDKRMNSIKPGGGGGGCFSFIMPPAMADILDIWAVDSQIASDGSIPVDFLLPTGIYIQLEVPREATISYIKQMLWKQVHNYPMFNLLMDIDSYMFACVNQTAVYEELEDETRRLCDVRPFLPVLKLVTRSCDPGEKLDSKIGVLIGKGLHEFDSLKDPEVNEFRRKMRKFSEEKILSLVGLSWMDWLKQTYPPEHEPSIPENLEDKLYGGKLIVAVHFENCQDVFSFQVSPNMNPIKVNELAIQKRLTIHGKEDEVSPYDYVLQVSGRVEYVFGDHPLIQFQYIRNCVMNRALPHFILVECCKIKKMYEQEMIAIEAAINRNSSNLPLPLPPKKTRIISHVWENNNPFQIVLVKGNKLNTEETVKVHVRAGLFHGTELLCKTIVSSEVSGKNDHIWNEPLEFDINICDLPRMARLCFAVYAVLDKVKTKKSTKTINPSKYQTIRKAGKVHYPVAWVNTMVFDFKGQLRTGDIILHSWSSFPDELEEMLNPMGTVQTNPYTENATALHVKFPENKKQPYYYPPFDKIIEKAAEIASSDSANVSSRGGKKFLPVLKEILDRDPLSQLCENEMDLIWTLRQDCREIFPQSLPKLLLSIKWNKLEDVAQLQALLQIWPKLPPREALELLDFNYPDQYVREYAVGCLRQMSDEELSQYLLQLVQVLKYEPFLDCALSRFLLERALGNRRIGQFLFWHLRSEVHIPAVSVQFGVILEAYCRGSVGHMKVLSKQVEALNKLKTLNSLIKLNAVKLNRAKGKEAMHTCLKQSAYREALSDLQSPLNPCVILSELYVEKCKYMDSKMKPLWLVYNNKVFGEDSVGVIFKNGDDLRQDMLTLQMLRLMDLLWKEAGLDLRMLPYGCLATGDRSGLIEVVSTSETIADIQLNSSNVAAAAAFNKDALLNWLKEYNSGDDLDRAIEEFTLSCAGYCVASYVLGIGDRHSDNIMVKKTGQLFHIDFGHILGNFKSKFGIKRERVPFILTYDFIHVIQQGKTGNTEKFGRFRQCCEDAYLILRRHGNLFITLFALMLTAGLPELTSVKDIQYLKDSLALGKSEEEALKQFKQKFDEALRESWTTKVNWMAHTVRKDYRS
T4 sequence (O00329 with tags, fused parts or gaps limits assumed): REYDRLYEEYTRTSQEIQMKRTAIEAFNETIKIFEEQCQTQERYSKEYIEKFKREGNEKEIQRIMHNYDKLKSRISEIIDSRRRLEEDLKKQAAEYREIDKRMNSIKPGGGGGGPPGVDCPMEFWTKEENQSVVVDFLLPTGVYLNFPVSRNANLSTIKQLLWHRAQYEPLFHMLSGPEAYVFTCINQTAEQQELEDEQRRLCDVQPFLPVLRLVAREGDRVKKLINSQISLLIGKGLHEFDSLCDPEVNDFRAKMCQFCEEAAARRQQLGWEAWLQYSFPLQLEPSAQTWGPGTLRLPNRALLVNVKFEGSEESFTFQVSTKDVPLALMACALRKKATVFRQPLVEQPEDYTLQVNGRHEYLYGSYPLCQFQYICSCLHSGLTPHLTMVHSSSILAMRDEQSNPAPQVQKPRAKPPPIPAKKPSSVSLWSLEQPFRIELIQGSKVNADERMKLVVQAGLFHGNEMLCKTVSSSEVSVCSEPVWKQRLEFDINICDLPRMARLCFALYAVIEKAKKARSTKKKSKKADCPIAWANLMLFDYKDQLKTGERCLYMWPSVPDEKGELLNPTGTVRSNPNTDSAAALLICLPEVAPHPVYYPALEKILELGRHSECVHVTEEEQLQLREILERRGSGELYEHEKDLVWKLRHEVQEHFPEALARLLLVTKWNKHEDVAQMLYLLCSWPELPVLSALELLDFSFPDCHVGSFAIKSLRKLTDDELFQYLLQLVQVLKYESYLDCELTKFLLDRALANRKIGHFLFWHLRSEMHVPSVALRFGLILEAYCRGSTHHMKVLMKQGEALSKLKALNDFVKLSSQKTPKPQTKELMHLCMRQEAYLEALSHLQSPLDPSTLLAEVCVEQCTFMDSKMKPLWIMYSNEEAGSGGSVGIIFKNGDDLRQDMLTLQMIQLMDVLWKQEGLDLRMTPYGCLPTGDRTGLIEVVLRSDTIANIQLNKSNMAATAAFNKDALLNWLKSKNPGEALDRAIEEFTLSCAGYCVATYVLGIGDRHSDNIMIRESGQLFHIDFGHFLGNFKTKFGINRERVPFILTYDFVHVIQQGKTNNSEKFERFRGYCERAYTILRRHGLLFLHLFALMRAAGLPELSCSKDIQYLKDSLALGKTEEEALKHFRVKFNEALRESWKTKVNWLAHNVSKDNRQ

| SMILES | IC50 (PI3K gamma) | IC50 (PI3K alfa) | IC50 (PI3K beta) | IC50 (PI3K delta) | melting point |
| --- | --- | --- | --- | --- | --- |
| Cc1nc2ccc(-c3ccc4c(c3)OCO4)nn2c1-c1cnc2[nH]ccc2c1 [Example 109, 6-Benzo[1,3]dioxol-5-yl-2-methyl-3-(1H-pyrrolo[2,3-b]pyridin-5-yl)-imidazo[1,2-b]pyridazine] | > 9.1 µM | 5.91 µM | > 9.1 µM | 3.94 µM |  |
| Cc1nc2ccc(-c3ccc(OCC4(NC(=O)OCc5ccccc5)COC4)cc3)nn2c1-c1cnc(N)c(C(F)(F)F)c1 [Example 112, (3-{4-[3-(6-Amino-5-trifluoromethyl-pyridin-3-yl)-2-methyl-imidazo[1,2-b]pyridazin-6-yl]-phenoxymethyl}-oxetan-3-yl)-carbamic acid benzyl ester] | > 9.1 µM | 0.821 µM | > 9.1 µM | 1.82 µM |  |
| Cc1nc2ccc(-c3ccc(OCC4(NC(=O)OC(C)(C)C)COC4)cc3)nn2c1-c1cnc(N)c(C(F)(F)F)c1 [Example 113, (3-{4-[3-(6-Amino-5-trifluoromethyl-pyridin-3-yl)-2-methyl-imidazo[1,2-b]pyridazin-6-yl]-phenoxymethyl}-oxetan-3-yl)-carbamic acid tert-butyl ester] | > 9.1 µM | 1.01 µM | > 9.1 µM | 5.11 µM |  |
| COC(=O)NC1(COc2ccc(-c3ccc4nc(C)c(-c5cnc(N)c(C(F)(F)F)c5)n4n3)cc2)COC1 [Example 115, (3-{4-[3-(6-Amino-5-trifluoromethyl-pyridin-3-yl)-2-methyl-imidazo[1,2-b]pyridazin-6-yl]-phenoxymethyl}-oxetan-3-yl)-carbamic acid methyl ester] | 3.16 µM | 0.295 µM | > 9.1 µM | 1.97 µM | 202 to 204 °C |
| Cc1nc2ccc(-c3ccc(OCC4(NC(=O)C(F)(F)F)COC4)cc3)nn2c1-c1cnc(N)c(C(F)(F)F)c1 [Example 116, N-(3-{4-[3-(6-Amino-5-trifluoromethyl-pyridin-3-yl)-2-methyl-imidazo[1,2-b]pyridazin-6-yl]-phenoxymethyl}-oxetan-3-yl)-2,2,2-trifluoro-acetamide] | 4.67 µM | 0.059 µM | 4.24 µM | 0.937 µM | 214 to 216 °C |

Stronger by IC50 (PI3K gamma), values ahead:

| IC50 (PI3K gamma) | IC50 (PI3K alfa) | IC50 (PI3K beta) | IC50 (PI3K delta) | melting point | SMILES |
| --- | --- | --- | --- | --- | --- |
| 2.08 µM | 0.126 µM | 8.19 µM | 1.59 µM | 191 to 193 °C | Cc1nc2ccc(-c3ccc(OCC4(NC(=O)C5CC5)COC4)cc3)nn2c1-c1cnc(N)c(C(F)(F)F)c1 [Example 110, Cyclopropanecarboxylic acid (3-{4-[3-(6-amino-5-trifluoromethyl-pyridin-3-yl)-2-methyl-imidazo[1,2-b]pyridazin-6-yl]-phenoxymethyl}-oxetan-3-yl)-amide] |
| 1.52 µM | 0.049 µM | 8.73 µM | 0.435 µM |  | Cc1nc2ccc(-c3ccc(OCC4(NC(=O)C(C)C)COC4)cc3)nn2c1-c1cnc(N)c(C(F)(F)F)c1 [Example 114, N-(3-{4-[3-(6-Amino-5-trifluoromethyl-pyridin-3-yl)-2-methyl-innidazo[1,2-b]pyridazin-6-yl]-phenoxymethyl}-oxetan-3-yl)-isobutyramide] |
| 1.19 µM | 0.131 µM | 2.39 µM | 0.895 µM | 198 to 200 °C | Cc1nc2ccc(-c3ccc(OCC4(N)COC4)cc3)nn2c1-c1cnc(N)c(C(F)(F)F)c1 [Example 111, 5-{6-[4-(3-Amino-oxetan-3-ylmethoxy)-phenyl]-2-methyl-imidazo[1,2-b]pyridazin-3-yl}-3-trifluoromethyl-pyridin-2-ylamine] |
